Test results: PMC3981761, “A New Assay for Determining Ganglioside Sialyltransferase Activities Lactosylceramide-2,3-Sialyltransferase (SAT I) and Monosialylganglioside-2,3-Sialyltransferase (SAT IV)” (PLoS ONE, 2014)

System: T1, recombinant α2,3-(O)-sialyltransferase (EC 2.4.99.4), rat liver
T1 construct: gene St3gal2; recombinant commercial enzyme (EMD Bioscience), originating from rat liver
Experiment: HPLC with fluorescence detection of BODIPY-GD1a formed
Format: biochemical
Settings: BODIPY-GM1 constant at 13 μM, pH 6, Mes, Triton, 37°C, 1 h; donor substrate

## CC(=O)N[C@H]1[C@H]([C@H](O)[C@H](O)CO)O[C@](OP(=O)(O)OC[C@H]2O[C@@H](n3ccc(N)nc3=O)[C@H](O)[C@@H]2O)(C(=O)O)C[C@@H]1O [CMP-NeuAc]
  Km: 23.4 ± 0.1 µM
